From paper PMC7248705, “A Pharmacokinetic and Pharmacodynamic Evaluation of the Anti-Hepatocellular Carcinoma Compound 4-N-Carbobenzoxy-gemcitabine (Cbz-dFdC)” (Molecules, 2020) come the findings set out here.

Data set [1] can be described thus: Plasma pharmacokinetics in vivo. As to conditions: SD, rat, po; plasma analyte after i.g. Cbz-dFdC 22 mg/kg, rats. The method, then: SD rats (n = 6) were intragastrically administered Cbz-dFdC (22 mg/kg) and intravenously injected with dFdC (15 mg/kg), and 150 μL blood samples were collected from the retro-orbital route in the right eye at 0, 5, 10, 20, and 30 min and at 1, 2, 4, 6, 12, 24, and 48 h, using heparinized tubes. Without delay, the blood was directly centrifuged at 8000× g at 4 °C for 5 min. Then, the supernatant plasma was collected and immediately extracted using a previously established method or was frozen at −80 °C until further analysis.

The nature of data set [2]: Incubation in rat intestine homogenate and S9. The class given is in vitro ADME. The method, then: (§1) The SD rats without any treatment were sacrificed after adapting to the environment. Blank blood, the liver, the kidney, and the intestine were collected and treated as described in Section 4.4. Part of the homogenate was removed for centrifugation for 20 min at 9000× g at 4 °C, and the supernatant was obtained as tissue S9. The tissue homogenate and S9 were diluted to […] after the protein concentration was determined by the BCA kit (Abcam, Cambridge, MA, USA). Each matrix consisted of 45 uL of the matrix mixed with 5 uL of the drug dissolved in normal saline solution for about 3 min, followed by incubation at 37 °C in a water bath. Then, acetonitrile containing the internal standard was added to terminate the reaction. Human tissue S9 and human CES1 recombinase purchased from the Ruid Liver Disease Research Co., Ltd. (Shanghai, China) were incubated under the same conditions. An enzyme kinetic study was obtained from the matrix following incubation at 37 °C for 30 min with 5, 10, 20, 50, 100, or 200 μM of Cbz-dFdC. We estimated the parameters and simulated curves according to the Eadie–Hofstee method.

The next data set concerns HepG2 cells. The data set can be described thus: Cell uptake in HepG2 cells. The class given is cell-based, human. The method, then: The cells were cultured on a 96-well plate for 4 h for each well. Then, dimethyl sulfoxide solution containing 0.1–100 mM of Cbz-dFdC and dFdC was diluted 1000 times with the medium before administration. A total of 200 uL of medium containing Cbz-dFdC and dFdC was added per well (n = 6). The medium with drugs was discarded, and 10% CCK-8 solution was added. Then, the absorbance value was read at a wavelength of 450 nm after incubation at 37 °C, for 30 min. The drug concentration of Cbz-dFdC and dFdC in cell were determined by a previously established method.

The nature of data set [3]: Enzymatic kinetics in vitro, rat blood. The class given is in vitro ADME. As to conditions: 37 °C, 30 min, 5–200 μM Cbz-dFdC. The method, then:
as §1

Data set [4] can be described thus: Enzymatic kinetics in vitro, rat plasma. The class given is in vitro ADME. As to conditions: 37 °C, 30 min, 5–200 μM Cbz-dFdC. The method, then: as §1
For the next data set, the system named is HepG2 tumor. The data set is described as follows: Antitumor efficacy in vivo, HepG2 tumor-bearing mice. As to conditions: 15 days, Cbz-dFdC i.g. 22 mg/kg/day vs dFdC i.p. 15 mg/kg/day (equimolar). The method, then:
A cell suspension (2 × 10^7 cells/mL) of HepG2 with 0.2 mL was subcutaneously injected into the right armpits of the mice. After the hepatocellular carcinomas were inoculated, mice bearing an overt tumor with a size of 100–200 mm^3 were randomized into the control and treatment groups. One group was injected (i.p.) with PBS as the control group, Cbz-dFdC groups were given with 22 mg/kg/day (i.g.), respectively, and the dFdC groups were given with 15 mg/kg/day (i.p.), respectively. The tumor sizes of all mice were monitored at 0 d, 3 d, 6 d, 9 d, 12 d, and 15 d after drug treatment. The tumor size was converted into tumor volume (V), which was calculated by the formula (L × W^2 × 0.52) and presented as the mean ± standard deviation, where L and W are the length and width of the tumor, respectively. The tumors were measured with a Vernier caliper until day 15, when the PBS brine-treated mice began to die, then all […] were sacrificed via nitrogen inhalation.

Another data set concerns the target T1, CES1 (Homo sapiens, UniProt P23141).
T1 construct: purchased Ruid Liver Disease Research Co., Ltd. (Shanghai, China)
T1 sequence (P23141 18-567): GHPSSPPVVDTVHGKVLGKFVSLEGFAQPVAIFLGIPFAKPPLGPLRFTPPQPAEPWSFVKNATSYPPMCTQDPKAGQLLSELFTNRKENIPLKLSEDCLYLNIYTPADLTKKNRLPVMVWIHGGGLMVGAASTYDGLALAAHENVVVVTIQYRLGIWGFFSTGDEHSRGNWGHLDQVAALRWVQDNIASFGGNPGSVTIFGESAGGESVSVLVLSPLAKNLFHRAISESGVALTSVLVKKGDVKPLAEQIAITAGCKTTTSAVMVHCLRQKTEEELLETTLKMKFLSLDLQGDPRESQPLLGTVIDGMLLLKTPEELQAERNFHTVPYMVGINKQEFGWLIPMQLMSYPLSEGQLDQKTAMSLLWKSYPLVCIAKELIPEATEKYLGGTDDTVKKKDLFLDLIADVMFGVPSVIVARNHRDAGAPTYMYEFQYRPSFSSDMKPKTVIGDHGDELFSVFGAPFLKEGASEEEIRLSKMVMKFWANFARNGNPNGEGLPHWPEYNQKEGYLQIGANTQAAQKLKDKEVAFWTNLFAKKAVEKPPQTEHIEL
The data set is described as follows: Enzymatic kinetics in vitro, human CES1 recombinase. The class given is in vitro ADME. As to conditions: recombinant human CES1, 37 °C, 30 min, 5–200 μM Cbz-dFdC, read-out: Clint, disappearance of Cbz-dFdC. The method, then:
as §1

Data set [5] can be described thus: Incubation in human plasma and S9 of the kidney and intestine. The format is in vitro ADME. The method, then:
as §1

The mark [6] stands for this setting: read-out: Km, appearance of dFdC.
The mark [7] stands for this setting: read-out: Km, disappearance of Cbz-dFdC.
Where [8] appears, read: SD, read-out: Clint, disappearance of Cbz-dFdC.

`O=C(Nc1ccn([C@@H]2O[C@H](CO)[C@@H](O)C2(F)F)c(=O)n1)OCc1ccccc1` [Cbz-dFdC, 4-N-carbobenzoxy-gemcitabine] yielded an AUC(0-inf) in data set [1] of 2690 ± 457 ng·h/mL. This compound also yielded a Cmax in data set [1] of 451 ± 107 ng/mL. Besides, the Tmax in data set [1] worked out at 2 h. In data set [1], this compound showed a half-life of 9.91 ± 1.87 h. The “stability towards CES2 in rats” value in data set [2] (concluded from tissue-specific CES expression, rats) is “relatively stable in CES2”. Also, the “degradation in rat intestine homogenate and S9” value in data set [2] (rat intestine homogenate and S9, dFdC not generated) was “essentially non-degradable”. In addition, the “intracellular concentration (cell uptake)” value with HepG2 cells was “low”. In addition, the “Vmax, appearance of dFdC” value is given as 178.5 nmol/min/mg pro in data set [3] and 230.4 nmol/min/mg pro in data set [4]. In addition, the entries for the “Vmax, disappearance of Cbz-dFdC” value in data set [3] and in data set [4] were 341.1 nmol/min/mg pro and 486.2 nmol/min/mg pro, respectively. Besides, the Michaelis constant (Km) came out at 73.2 µM in data set [3] (setting [6]), 69.8 µM in data set [3] (setting [7]), 101 µM in data set [4] (setting [6]) and 90.3 µM in data set [4] (setting [7]). In addition, the microsomal CLint in data set [3] (setting [8]) stood at 4890 µL/min/mg; in data set [4] (setting [8]), 5380 µL/min/mg; on CES1 it was 72700 µL/min/mg. Further, the “antitumor effect (tumor size)” value in the data set on HepG2 tumor is “slightly better than that of dFdC”. Further, the “stability towards CES2 in humans” value in data set [5] (concluded from tissue-specific CES expression, humans) is listed as “relatively stable in CES2”. In data set [5] (human plasma, kidney S9, intestine S9), the “degradation in human plasma and S9 of the kidney and intestine” value was “did not degrade”.

In general, AUC(0-inf) refers to total exposure, with the tail of the curve extrapolated. Lower therefore signals low exposure. In general, Cmax refers to the maximum level reached in the sampled fluid or tissue. As a reminder, the Tmax is the time from dosing to the highest level. In general, half-life refers to how long it takes for the measured level to halve. High values mean slow loss, low ones fast loss. One may read the Km as the substrate concentration at which the rate is half of its maximum.
